The supplement of paper PMC10307832

Experiments:
Test in all cases: relative viability (nuclei count vs DMSO), 5 days (fraction); higher = more cells survive
[1] = compound: COC1=CC=C(C=C1)CN2C=CC3=C2C=C(C=C3)C(=O)NO + C[C@@H](Oc1cc(-c2cnn(C3CCNCC3)c2)cnc1N)c1c(Cl)ccc(F)c1Cl [Crizotinib] (partner 1 µM)
Procedure, shortened: (§1)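 Relative viability divides the nuclei count in treated wells by that in vehicle wells. Lung cancer cell lines were seeded in 1536-well plates, dosed by pin tool the next day, and fixed and stained after 5 days in one step with final 0.05% Triton X-100, 1% formaldehyde and 1 ug/ml Hoechst. Dosing was a single drug or a fixed anchor-drug dose plus five library-drug doses (not always all listed) in √10 steps, and values are medians of duplicate plates imaged at 4×.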

[2] = compound: COC1=CC=C(C=C1)CN2C=CC3=C2C=C(C=C3)C(=O)NO + C[C@]1(O)C[C@@H](c2nc(-c3ccc4ccc(-c5ccccc5)nc4c3)c3c(N)nccn32)C1 [Linsitinib] (partner 1 µM)
Procedure, shortened: as §1

[3] = compound: C[C@]1(c2nc3c(C(N)=O)cccc3[nH]2)CCCN1 [Veliparib] + CC(=O)c1c(C)c2cnc(Nc3ccc(N4CCNCC4)cn3)nc2n(C2CCCC2)c1=O [Palbociclib] (partner 0.5 µM)
Procedure, shortened: as §1

[4] = compound: C[C@]1(c2nc3c(C(N)=O)cccc3[nH]2)CCCN1 [Veliparib] + Nc1ncn([C@H]2C[C@H](O)[C@@H](CO)O2)c(=O)n1 [Decitabine] (partner 2 µM)
Procedure, shortened: as §1

Cell Line	relative viability ([1]; first compound 0.08 µM)	relative viability ([1]; first compound 0.253 µM)	relative viability ([1]; first compound 0.8 µM)	relative viability ([1]; first compound 2.53 µM)	relative viability ([1]; first compound 8 µM)	relative viability ([2]; first compound 0.08 µM)	relative viability ([2]; first compound 0.253 µM)	relative viability ([2]; first compound 0.8 µM)	relative viability ([2]; first compound 2.53 µM)	relative viability ([2]; first compound 8 µM)	relative viability ([3]; first compound 0.06325 µM)	relative viability ([3]; first compound 0.2 µM)	relative viability ([3]; first compound 0.6325 µM)	relative viability ([3]; first compound 2 µM)	relative viability ([4]; first compound 0.02 µM)	relative viability ([4]; first compound 0.06325 µM)	relative viability ([4]; first compound 0.2 µM)	relative viability ([4]; first compound 0.6325 µM)	relative viability ([4]; first compound 2 µM)	relative viability ([3]; first compound 0.02 µM)
PC-14	0.675	0.898	0.908	0.924	0.809	0.894	0.959	0.936	1.04	0.944	0.514	0.51	0.465	0.523	0.155	0.141	0.135	0.12	0.109	
RERF-LC-KJ	0.618	0.756	0.864	0.816	0.814	0.763	0.883	0.867	0.901	0.945	1.03	1.06	1.09	1.13	0.658	0.631	0.607	0.72	0.674	1.07
SK-LU-1	0.929	1.17	0.992	1.01	0.749	0.998	1.3	1.08	1.29	0.888	0.379	0.394	0.362	0.378	0.634	0.663	0.58	0.583	0.485	0.426
SK-MES-1	1	0.983	0.984	1	0.885	1.03	1.05	1.12	1.14	1.01	0.278	0.329	0.307	0.297	0.364	0.293	0.341	0.324	0.337	0.334
UMC-11	0.269	0.704	0.564	0.554	0.56	0.891	0.974	1.06	0.959	0.938	0.303	0.318	0.331	0.368	0.568	0.568	0.476	0.444	0.389	0.314
